Test results: patent US9771430B2, “Method of treating a metabolic disorder induced by obesity in a subject in need thereof by administering MK2/3 inhibitors” (THE TRUSTEES OF COLUMBIA UNIVERSITY IN THE CITY OF NEW YORK, priority 2011, dated 2017)

Key:
calcineurin = assay: Calcineurin activity in primary hepatocytes; format: cell-based, mouse; conditions: cells expressing wild-type InsP3R1
Experimental: (§1) HEK293T (ATCC) cells were cultured in DMEM containing 10% FBS (HyClone), […] penicillin-streptomycin. Mouse primary hepatocytes were isolated and cultured as previously described (18). Cellular fractionation studies were conducted as previously reported (18). For reporter studies, Ad-CRE-luc infected hepatocytes (1 pfu per cell) were exposed to glucagon (Gcg, 100 nM) for 2˜4 h. For cyclosporine A (CsA, 10 μM) or okadaic acid (OA, 100 nM) or cell permeable calcineurin autoinhibitory peptide (10 μM) or CN585 (100 μM) or Calyculin A (10 nM) or Xestospongin C (Xc, 2 μM) or H89 (30 μM) or BAPTA (50 μM) inhibition, hepatocytes were pre-treated with the inhibitors for one hour. Luciferase activities were normalized to β-galactosidase activity from adenoviral-encoded RSV β-gal. Calcineurin activity (test kit from Enzo Life Sciences) and cellular cAMP levels (test kit from Cayman Chemical Company) were measured according to manufacturer's instructions.

cytosolic free calcium = assay: Calcium mobilization in primary hepatocytes (Fura-2 imaging); format: cell-based, mouse; conditions: cells expressing wild-type InsP3R1
Experimental: Mouse primary hepatocytes were plated on glass coverslips and loaded with 5 μM Fura-2 acetoxymethyl ester (Molecular Probes) in the presence of 0.025% (w/v) pluronic F127 (Sigma-Aldrich) in Media 199 (Mediatech) for 30 minutes. […] The ratio of fluorescence intensity at the two excitation wavelengths was calculated after subtracting background fluorescence. [Ca2+]I (cytosolic free calcium concentration) was calculated using a Fura-2 calcium imaging calibration kit (Invitrogen). Images were collected and analyzed using the MetaFluor software package (Universal Imaging Corp.). Graphs represent average responses from groups of 30-40 individual cells from representative single experiments. Bar graphs represent average responses (fold over average baseline) from 150-200 cells per condition. All experiments were repeated at least three times with similar results.

[1] = test system: InsP3R1, InsP3R2 and InsP3R3; assay: InsP3R phosphorylation in hepatocytes (phospho-substrate antiserum immunoblot); format: cell-based, mouse; conditions: phospho-AKT substrate antiserum
CaMKII [2] = format: cell-based, mouse
Experimental: FIG. 1A. CaMKII enzyme activity was assayed in triplicate wells of primary mouse HCs stimulated with 100 nM glucagon (Gluc) or vehicle control (Veh) for the indicated times (*P<0.05 and **P<0.01 vs. Veh; mean±S.E.M.). FIGS. 1B-1J. Extracts of HCs or liver were probed for phospho-CaMKII, total CaMKII, and β-actin by immunoblot assay. FIG. 1B. HCs were incubated with […] glucagon for the indicated times; FIG. 1C. Glucagon was added to HCs that were pre-treated for 1 h with vehicle control (Veh) or 5 μM BAPTA-AM; FIG. 1D. Glucagon was added to HCs that were pre-treated with 0.5 μM xestospongin (XesC) or to HCs from Ip3r1fl/fl mice transduced with adeno-LacZ control or adeno-Cre (bar graph=Ip3r1 mRNA levels); FIG. 1E. Glucagon was added to HCs that were pre-treated for 1 h with vehicle control (Veh) or 10 μM H89. FIG. 1F. […] FIGS. 1G-1J. In vivo experiments. In FIG. 1G, mice were treated for 30 min with 200 μg kg−1 body weight of glucagon i.p., and in FIG. 1H, mice were pre-treated with 10 pmol g−1 xestospongin C or vehicle control i.p. 4 days prior to glucagon treatment. In FIGS. 1I-1J, mice were fed ad libitum or fasted for 12 h, or fasted for 12 h and then re-fed for 4 h.
Total RNA was extracted from hepatocytes using the RNeasy kit (Qiagen). cDNA was synthesized from 2 μg total RNA using oligo (dT) and Superscript II (Invitrogen). Real-time qPCR analysis and western blotting were performed as previously described (Timmins et al., 2009). Nuclear extraction from liver was performed using the Nuclear Extraction Kit from Panomics according to the manufacturer's instructions.
Immunoblot and RT-qPCR assays were performed as previously described (Timmins et al., 2009). Total RNA was extracted from HCs using the RNeasy kit (Qiagen). cDNA was synthesized from 2 μg total RNA using oligo (dT) and Superscript II (Invitrogen). Nuclear extraction from liver was performed using the Nuclear Extraction Kit from Panomics according to the manufacturer's instructions.

CRTC2 = CRTC2 dephosphorylation and nuclear translocation in primary hepatocytes; format: cell-based, mouse; conditions: inhibitor pre-treatment 1 h, glucagon 100 nM
Experimental: as §1
(§2) Immunoblot, immunoprecipitation, and immunostaining assays were performed as described (18). CRTC2, pCREB (Ser133), CREB, pAKT (Thr308), AKT, tubulin, HA, and FLAG antibodies were previously described (18). The antibodies anti-InsP3R1 (A302-158A) and InsP3R3 (A302-160A) were purchased from Bethyl Laboratories, anti-InsP3R2 (ab77838) from Abcam, anti-Calcineurin (610260) from BD Biosciences, anti-GRP78 (ADI-SPA-826-F) from Enzo Life Sciences, anti-phospho-PKA substrate (RRXS/T, 9624), anti-phospho-AKT substrate (RXXS/T, 9614) and CRTC2 (pS171, 2892) from Cell Signaling. CRTC2 (pS275) antibody was employed as described (19).

CREB = assay: PKA-mediated phosphorylation of CREB in hepatocytes; format: cell-based, mouse
Experimental: as §2

[3] = test system: CRE-luciferase (luc) reporter; assay: CRE-luciferase reporter activity in primary hepatocytes; format: cell-based, mouse; conditions: response to glucagon
Experimental: as §1

p42 MAP kinase = p42 MAP kinase (Homo sapiens, UniProt P28482); conditions: at 100 μM; cited from earlier work
p42 MAP kinase, sequence (P28482 whole entry): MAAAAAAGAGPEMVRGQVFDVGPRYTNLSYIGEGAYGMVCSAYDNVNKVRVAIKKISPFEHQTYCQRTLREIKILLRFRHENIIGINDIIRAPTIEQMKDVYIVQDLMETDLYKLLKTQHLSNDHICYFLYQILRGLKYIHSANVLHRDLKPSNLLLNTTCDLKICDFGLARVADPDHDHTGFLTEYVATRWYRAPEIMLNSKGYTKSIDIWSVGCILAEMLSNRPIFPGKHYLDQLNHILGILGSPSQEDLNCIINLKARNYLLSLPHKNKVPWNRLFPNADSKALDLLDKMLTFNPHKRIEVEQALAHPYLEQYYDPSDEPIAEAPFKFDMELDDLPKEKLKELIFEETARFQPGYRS

JNK = conditions: at 100 μM; cited from earlier work
FoxO1 [4] = assay: FoxO1 subcellular localization in primary mouse hepatocytes; format: cell-based; conditions: HCs treated with glucagon
Experimental: FIG. 24A HCs from WT and Camk2g^−/− mice were transduced with an adenovirus expressing murine GFP-FoxO1 at an MOI of 2. Cells were serum-depleted overnight and then incubated for 5 h in serum-free media. FoxO1 subcellular localization was assessed by indirect immunofluorescence. Bar, 10 μm. Data are quantified in the right panel. (^#P<0.0005; mean±S.E.M.). FIG. 24B HCs were transduced with adenoviral vectors expressing LacZ, CA-CaMKII, or KD-CaMKII at an MOI of 20 and then transduced 4 h later with adeno-GFP-FoxO1, followed by fluorescence microscopy and quantification as in FIG. 24A (^#P<0.005 vs. LacZ; mean±S.E.M.). Bar, 5 μm. FIG. 24C HCs were transduced with adeno-LacZ or CA-CaMKII and then adeno-GFP-FoxO1 as in FIG. 24B. After incubation in serum-depleted medium o.n. and then serum-free medium for 5 h, the cells were treated with 100 nM insulin for the indicated times. FoxO1 subcellular localization was quantified as in FIG. 24B (*P<0.005 vs. LacZ in each group; mean±S.E.M.).
Primary hepatocytes from WT mice were transduced with adeno-LacZ (LacZ) or adeno-DN-MK2 (DN-MK2) at an MOI of 1. […]

G6pc and Pck1 mRNA = G6pc and Pck1 mRNA (RT-qPCR) in primary mouse hepatocytes; format: cell-based
Experimental: FIG. 32A-E. Related to FIG. 26—p38. FIG. 32A Mice were fed ad libitum or fasted for 12 h. Liver phospho-p38, total p38, p-MK2, total MK-2, and β-actin were assayed by immunoblot. FIG. 32B WT HCs were serum-depleted overnight and then incubated for 5 h with 100 nm glucagon in serum-free media with or without SB202190; or glucagon was added to HCs from P38a^fl/fl mice treated with adeno-LacZ (control) or adeno-Cre. RNA was assayed for G6pc and Pck1 mRNA (*P<0.05; mean±S.E.M.). FIG. 32C HCs from fasting WT and Camk2g^−/− mice were assayed for p-p38, total p38, and β-actin. FIG. 32D WT mice were injected i.p. with 12.5 mg kg^−1 body weight of p38 inhibitor (SB202190) or vehicle control. 12 h later, the mice were injected with an additional dose of SB202190 and fasted overnight. The livers were assayed for nuclear FoxO1, nucleophosmin, p-MK2, total MK-2, and β-actin. The correlation between nuclear FoxO1 and p-MK2 band intensities is shown in the graph. FIG. 32E Adeno-GFP-FoxO1-transduced HCs were serum-depleted overnight, and then incubated for 5 h in serum-free media with SB202190 or vehicle (Veh) control. FoxO1 localization was assessed by indirect immunofluorescence (Bar, 10 μm; *P<0.05; mean±S.E.M.).
FIGS. 53A-B. MK-2 regulates hepatic FoxO1 subcellular localization and hepatic G6Pc and Pck1. FIG. 53A. Adeno-GFP-FoxO1-transduced HCs were serum-depleted overnight, and then incubated for 30 min in serum-free media with 2 uM MK-2 inhibitor or vehicle (Veh) control. FoxO1 localization was assessed by indirect immunofluorescence (Bar, […]; *P<0.005; mean±S.E.M.). FIG. 53B WT HCs were serum-depleted overnight and then incubated for 5 h with 100 nm glucagon in serum-free media with or without MK-2 inhibitor. RNA was assayed for G6pc and Pck1 mRNA (*P<0.005; mean±S.E.M.). MK-2 Inhibitor is from Calbiochem (cat#475864): 2-(2-Quinolin-3-ylpyridin-4-yl)-1,5,6,7-tetrahydro-4H-pyrrolo-[3,2-c]pyridin-4-one.
FIG. 69. MK-2 inhibitor suppresses forskolin-induced Pck1 and G6Pc induction in primary hepatocytes. Primary hepatocytes from WT mice were serum-depleted overnight and then pre-treated with 300 nM MK-2 inhibitor (compound 28) or vehicle for 1 h. Cells were then treated with 2 μM forskolin in serum-free media with or without the inhibitor for 4 h. RNA was assayed for G6pc and Pck1 mRNA by RT-qPCR. *, P<0.0001.
Primary mouse HCs were isolated from 8- to 12-week-old mice as described previously (Matsumoto et al., 2002). For most experiments, the HCs were serum-depleted overnight by incubation in medium containing 0.5% fetal calf serum and were then incubated for 5 h in serum-free media, with individual treatments noted in the figure legends. HCs were transduced with adenoviral constructs 12 h after plating, and experiments were conducted 24 h after transduction. Transfections with WT, 7A- and 9A-Foxo1 were carried out using jetPEI™-hepatocyte DNA transfection reagent (Polyplus-transfection, Inc.) according to manufacturer's instructions.
Immunoblot and RT-qPCR assays were performed as previously described (Timmins et al., 2009). Total RNA was extracted from HCs using the RNeasy kit (Qiagen). cDNA was synthesized from 2 μg total RNA using oligo (dT) and Superscript II (Invitrogen). Nuclear extraction from liver was performed using the Nuclear Extraction Kit from Panomics according to the manufacturer's instructions. […] Whether their origin is alternative splicing or post-translational modification remains to be determined.

FoxO1 [5] = assay: Nuclear FoxO1 in mouse liver (immunoblot of nuclear extracts); format: in vivo; conditions: fasting mice, 12.5 mg kg−1 i.p., two doses
Experimental: FIGS. 24A-D. CaMKII regulates hepatic FoxO1 subcellular localization. FIG. 24A HCs from WT and Camk2g^−/− mice were transduced with an adenovirus expressing murine GFP-FoxO1 at an MOI of 2. Cells were serum-depleted overnight and then incubated for 5 h in serum-free media. FoxO1 subcellular localization was assessed by indirect immunofluorescence. Bar, 10 μm. Data are quantified in the right panel. (^#P<0.0005; mean±S.E.M.). […] Bar, 5 μm. FIG. 24C HCs were transduced with adeno-LacZ or CA-CaMKII and then adeno-GFP-FoxO1 as in FIG. 24B. After incubation in serum-depleted medium o.n. and then serum-free medium for 5 h, the cells were treated with 100 nM insulin for the indicated times. FoxO1 subcellular localization was quantified as in FIG. 24B (*P<0.005 vs. LacZ in each group; mean±S.E.M.).
FIG. 32A-E. Related to FIG. 26—p38. FIG. 32A Mice were fed ad libitum or fasted for 12 h. Liver phospho-p38, total p38, p-MK2, total MK-2, and β-actin were assayed by immunoblot. […] FoxO1 localization was assessed by indirect immunofluorescence (Bar, 10 μm; *P<0.05; mean±S.E.M.).
Immunoblot and RT-qPCR assays were performed as previously described (Timmins et al., 2009). […] Whether their origin is alternative splicing or post-translational modification remains to be determined.

CaMKII [6] = conditions: WT Mφs, 4 h, 5 μM
Experimental: Immunoblots of pThr287-CaMKII in FIG. 15A WT, Insr−/−, and ob/obMφs±FC loading or oxLDL and FIG. 15B WT Mφs±4 h treatment with 5 μM U0126 ERK inhibitor.

Molecule: insulin: hormone
- glucagon-dependent increases in calcineurin activation (calcineurin): reduced
- glucagon-dependent increases in calcium mobilization (cytosolic free calcium): reduced
- InsP3R phosphorylation [1]: increased

Molecule: CC(=O)OCOC(=O)CN(CC(=O)OCOC(C)=O)c1ccccc1OCCOc1ccccc1N(CC(=O)OCOC(C)=O)CC(=O)OCOC(C)=O [BAPTA-AM, 1,2-bis[2-aminophenoxy]ethane-N,N,N′,N′-tetraacetic acid tetrakis[acetoxymethyl ester]]
- glucagon-induced CaMKII phosphorylation (CaMKII [2]; HCs pre-treated with inhibitor, then glucagon): markedly decreased
- glucagon-induced dephosphorylation (and nuclear translocation) of CRTC2 (CRTC2): disrupted
- PKA-mediated phosphorylation of CREB in response to glucagon (CREB): did not block
- CRE-luciferase (luc) reporter activity / activation [3]: disrupted

Molecule: C1CNC1 [azetidine]
- p-CaMKIIγ in HCs (CaMKII [2]; ER stress activation): increased

Molecule: C[S+]([O-])c1ccc(-c2nc(-c3ccncc3)c(-c3ccc(F)cc3)[nH]2)cc1 (stereo not drawn) [SB203580]
- inhibition of p42 MAP kinase (p42 MAP kinase): does not significantly inhibit
- inhibition of JNK (JNK): does not significantly inhibit

Molecule: Oc1ccc(-c2nc(-c3ccncc3)c(-c3ccc(F)cc3)[nH]2)cc1 [SB202190]
- nuclear GFP-FoxO1 (FoxO1 [4]): decreased
- expression of G6pc and Pck1 (G6pc and Pck1 mRNA; glucagon-stimulated HC): blocked
- nuclear FoxO1 in liver as a function of p38 inhibition (p-MK2) (FoxO1 [5]): clear decrease

Molecule: C=C1[C@@H](O)[C@@H]2O[C@]3(CC[C@H](/C=C/[C@@H](C)[C@@H]4CC(C)=C[C@@]5(O[C@H](C[C@@](C)(O)C(=O)O)CC[C@H]5O)O4)O3)CC[C@H]2O[C@@H]1[C@@H](O)C[C@H](C)[C@H]1O[C@@]2(CCCCO2)CC[C@H]1C [okadaic acid]
- glucagon-induced dephosphorylation (and nuclear translocation) of CRTC2 (CRTC2): did not

Molecule: C=C[C@@]1(C)CC(=O)[C@]2(O)[C@@]3(C)[C@@H](O)CCC(C)(C)[C@@H]3[C@H](O)[C@H](OC(C)=O)[C@@]2(C)O1 [forskolin]
- G6pc mRNA, untreated WT HCs lower than forskolin-treated WT HCs (G6pc and Pck1 mRNA; forskolin 10 μM): ~165 fold
- Pck1 mRNA, untreated WT HCs lower than forskolin-treated WT HCs (G6pc and Pck1 mRNA; forskolin 10 μM): ~2500 fold

Molecule: O=C1NCCc2[nH]c(-c3ccnc(-c4cnc5ccccc5c4)c3)cc21 [MK2 inhibitor, 2-(2-Quinolin-3-ylpyridin-4-yl)-1,5,6,7-tetrahydro-4H-pyrrolo-[3,2-c]pyridin-4-one]
- nuclear FoxO1 and induction of genes involved in hepatic glucose production (G6pc and Pck1 mRNA; 2 uM MK-2 inhibitor, glucagon 100 nm 5 h (FIG. 53)): importance of MK2 in both nuclear FoxO1 and in induction of genes

Molecule: N#CC(=C(/N)Sc1ccccc1N)/C(C#N)=C(\N)Sc1ccccc1N [U0126]
- p-CaMKII (CaMKII [6]): increase
